Earlier results on three compounds are cited in patent publication US20090196889A1, “CONTROLLED ABSORPTION OF STATINS IN THE INTESTINE” (DEXCEL PHARMA TECHNOLOGIES LTD., priority 2004, published 2009).

The target in one data set is T1, HMG-CoA reductase (Homo sapiens, UniProt P04035).
T1 sequence (P04035 1-888): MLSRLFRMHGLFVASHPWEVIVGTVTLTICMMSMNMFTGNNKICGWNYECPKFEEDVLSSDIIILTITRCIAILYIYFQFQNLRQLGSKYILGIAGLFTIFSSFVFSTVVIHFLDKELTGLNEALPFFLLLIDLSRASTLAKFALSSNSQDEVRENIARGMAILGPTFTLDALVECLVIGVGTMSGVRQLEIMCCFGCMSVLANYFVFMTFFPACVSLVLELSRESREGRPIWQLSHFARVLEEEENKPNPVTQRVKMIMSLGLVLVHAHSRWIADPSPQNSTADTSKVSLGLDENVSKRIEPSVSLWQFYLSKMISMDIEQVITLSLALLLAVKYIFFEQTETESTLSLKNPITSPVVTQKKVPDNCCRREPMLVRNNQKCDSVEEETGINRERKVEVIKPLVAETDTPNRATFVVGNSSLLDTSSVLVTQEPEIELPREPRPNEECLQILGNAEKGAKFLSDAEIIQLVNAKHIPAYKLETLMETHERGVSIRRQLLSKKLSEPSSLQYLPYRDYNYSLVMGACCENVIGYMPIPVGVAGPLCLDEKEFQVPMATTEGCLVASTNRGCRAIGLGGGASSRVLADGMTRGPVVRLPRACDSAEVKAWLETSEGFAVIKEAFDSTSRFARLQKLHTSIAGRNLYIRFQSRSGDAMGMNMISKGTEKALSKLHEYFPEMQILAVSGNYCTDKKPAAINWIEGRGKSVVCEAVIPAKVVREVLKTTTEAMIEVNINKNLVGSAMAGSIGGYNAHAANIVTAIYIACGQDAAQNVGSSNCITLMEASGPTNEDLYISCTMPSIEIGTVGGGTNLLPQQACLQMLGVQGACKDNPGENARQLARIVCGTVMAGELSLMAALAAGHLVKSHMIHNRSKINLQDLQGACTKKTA
To be noted: relative to the beta-hydroxy acid form considered as the drug.

Data set [1] concerns plasma proteins, primarily albumin. To be noted: simvastatin and its active acid forms.

SMILES strings stand for the structures.

Regarding `CCC(C)(C)C(=O)OC1CC(C)(O)C=C2C=CC(C)C(CCC3CC(O)CC(=O)O3)C21` (stereo not drawn) [6-beta-hydroxy simvastatin], on HMG-CoA reductase, the “HMG-CoA reductase activity retained” value is ~50%.
Turning to `CCC(C)(C)C(=O)OC1CC(CO)C=C2C=CC(C)C(CCC3CC(O)CC(=O)O3)C21` (stereo not drawn) [6-beta-hydroxymethyl], the “HMG-CoA reductase activity retained” value at HMG-CoA reductase is reported as “approximately 40%”.
Take `CCC(C)(C)C(=O)O[C@H]1C[C@@H](C)C=C2C=C[C@H](C)[C@H](CC[C@@H]3C[C@@H](O)CC(=O)O3)[C@H]21` [simvastatin]: the “bound to plasma proteins, primarily to albumin” value in data set [1] is listed as “more than 95%”.
